We go through 2 substances from US8242240B2, “Anti-inflammatory compounds and uses thereof” (Yale University, priority 2000, dated 2012).

One experiment has as its system E-selectin. Kind of experiment: E-selectin expression in primary HUVEC (FACS). The conditions noted are these: for TNFα-induced expression of E-selectin: peptide 100 μM 2 h, TNFα 10 ng/ml 6 h. It counts as cell-based, human. On the procedure:
(A) Primary HUVEC were pre-incubated for two hours with wild-typo (middle) or mutant (bottom) NBD peptides (100 μM) then stimulated with TNFα (10 ng/ml) for a further six hours. Control cells received no peptide. Cells were stained with either anti-E-selectin (H4/18) or a non-binding control antibody (K16/16) and expression was measured FACS (FACSort, Becton Dickinson). The profiles show E-selectin staining in the absence (shaded) and presence (solid line) of TNFα and control antibody staining under the sane conditions (dashed line, no TNFα; dotted line, TNFα). (B) % control release of NO2— in various samples. (C) PMA-induced ear edema in mice topically treated with either vehicle (VEH), dexamethasone (DEX) or NBD peptides was induced and measured as described in Example 8. Data are presented as mean differences in ear thickness ±SD (*=p<0.05 compared with both untreated control and vehicle). (D) The effects of the NBD peptide compared with the effect of dexamethasone (DEX) on Zymosan (ZYM)-induced peritonitis in mice were determined as described again in Example 8. Control mice were injected with phosphate-buffered saline (PBS).
Many proteins involved in the initiation and maintenance of inflammatory responses require NF-κB activation for induced expression of their genes (Ghosh et al., (1998) Annu. Rev. Immunol. 16, 225-260; May & Ghosh, (1998) Immunol. Today 19, 80-88). One such protein, E-selectin, is a leukocyte adhesion molecule expressed on the luminal surface of vascular endothelial cells after activation by pro-inflammatory stimuli such as IL-1 or TNFα (Pober et al., (1986) J. Immunol. […], 1680-1687; Bevilacqua et al., (1987) Proc. Natl. Acad. Sci. USA 84, 9238-9242; Collins et al., (1995) FASEB J. 9, 899-909). Expression of E-selectin and other NF-κB-dependent adhesion molecules is crucial for the arrest and recruitment of leukocytes into sites of acute and chronic inflammation. […]

The test system of experiment [1] is mice (zymosan-induced peritonitis). Kind of experiment: Zymosan-induced peritonitis in mice. It counts as in vivo, mice (C57BL/6NCR). The note with it: for PMN accumulation / exudate formation: NBD peptides 200 mg/ml i.p. with zymosan. The protocol:
In a second model, peritonitis was induced in mice by intraperitoneal (i.p.) injection of zymosan either alone or in combination with dexamethasone or the NBD peptides. For zymosan-induced peritonitis, measurement of peritoneal exudates and inflammatory cell collections from replicate groups of age and sex matched mice (C57BL/6NCR) were performed as previously described (Getting et al., (1998) Immunology 95, 625-630). Groups of animals were injected concomitantly with one ml zymosan (1 mg/ml) and either dexamethasone (100 mg/ml) or the NBD peptides (200 mg/ml). The concentration of NOX (nitrate plus nitrite) present in the inflammatory exudates was measured using a colorimetric assay kit (Alexis Corporation) according to the manufacturers protocol.

A further experiment has as its system Mouse bone marrow cells. Kind of experiment: RANKL-induced osteoclast differentiation of bone marrow cells. Format: cell-based. The note with it: M-CSF 20 ng/ml + RANKL 100 ng/ml, six days, peptide 6.25, 12.5 and 25 mM. An excerpt: Osteoporosis is a severely debilitating disease characterized by an extensive loss of bone mass that is mediated by osteoclast-dependent bone resorbtion (Suda et al., (1992) Endocr. Rev. 13, 66-80; Suda et al., (1999) Endocr. Rev. 20, 345-357). It is therefore possible that selective inhibition of NF-κB activation in osteoclast precursor cells would prevent osteoclast differentiation and provide the basis for therapeutically effective drugs for the treatment of osteoporosis. Therefore the effect of the NBD peptides on osteoclast differentiation was tested using a previously described in vitro model (Jimi et al., (1999) Exp. Cell Res. 247, 84-93). Mouse bone marrow cells plated into 48-well tissue culture trays were incubated with human macrophage-colony stimulating factor (M-CSF; 20 ng/ml) and human RANKL (100 ng/ml) for six days in the absence or presence of various concentrations ([…]) of either mutant or wild-type NBD peptide. The cells were then fixed and stained for the osteoclast phenotypic marker tartrate-resistant acid phosphatase (TRAP) and TRAP-positive mutinucleated cells containing more than three nuclei were counted as osteoclasts. Triplicate samples were counted and results were calculated as means±SD.

For a further experiment, the system named is NF-κB. Kind of experiment: EMSA of nuclear extracts from TNFα-treated HeLa cells. It counts as cell-based, human. The conditions noted are these: peptide 50, 100 or 200 μM 3 h, TNFα 10 ng/ml 15 min.
The mark [2] stands for this setting: NBD peptide 200 mg/ml i.p. with zymosan.

For “[DRQIKIWFQNRRMKWKK]TALDASALQTE (DRQIKIWFQNRRMKWKKTALDASALQTE; Description of Artificial Sequence: Synthetic Mutant NBD peptide) [identical to wild-type NBD peptide except W739 and W741 mutated to alanine, reference compound]”, in the experiment on E-selectin, the “TNFα-induced expression of E-selectin” value is reported as “not”. Also, in experiment [1] (setting [2]), the “effect on NOX in peritoneal exudates” value is “no effect”. In experiment [1], the PMN accumulation entry is reported as “no effect” and the exudate formation entry is recorded as “no effect”. For the same substance, the “inhibition of osteoclast differentiation (TRAP-positive multinucleated cells)” value (“inhibition of osteoclast differentiation” for short) in the experiment with Mouse bone marrow cells was “not”.
With “[DRQIKIWFQNRRMKWKK]TALDWSWLQTE (DRQIKIWFQNRRMKWKKTALDWSWLQTE; Description of Unknown: Unknown wildtype NBD peptide) [wild-type NBD peptide]”, in the experiment with NF-κB, the “inhibition of TNFα-induced activation and nuclear translocation of NF-κB (EMSA)” value is listed as “inhibited”. For the same substance, the “E-selectin expression in the absence of TNFα” value with E-selectin (peptide 100 μM) is “induced low level expression”. The “TNFα-induced expression of E-selectin” value with E-selectin is on record as “significantly reduced”. The “reduction of NOX in peritoneal exudates” value in experiment [1] (setting [2]) is listed as 66±4%. Also, in experiment [1], the PMN accumulation entry is given as “significantly reduced” and the exudate formation entry is “significantly reduced”. Further, the “inhibition of osteoclast differentiation” value with Mouse bone marrow cells (listed as wild type) is recorded as “dose-dependently inhibited”. Further, in the experiment with Mouse bone marrow cells (listed as wild-type), the “inhibition of osteoclast differentiation” value is recorded as “dose dependent inhibition”.
